Measurements reported in US20260216294A1, “BETA 2-ADRENERGIC RECEPTOR AGONISTS FOR TREATMENT OR PREVENTION OF MUSCLE WASTING” (ATROGI AB, priority 2023, published 2026).

What was measured:
[1] = system: L6-myotubes; experiment: Measurement of intracellular cAMP levels in differentiated L6-myotubes (Biological Example 3); type: cell-based; conditions: L6-myotubes; 15 min stimulation; compared with isoprenaline; FIGS. 2a-2d
In short: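 Intracellular cAMP quantified by AlphaScreen after ethanol extraction and lysis of L6 myotubes. Cells were serum-starved overnight, then exposed for 15 min to compound (final 1×10^−5 M) or isoprenaline in IBMX-containing (1 mM) HBSS buffer, pH 7.4.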

[2] = system: C57Bl/6N mice; experiment: Combination of Compound C and liraglutide in mice on high-fat, high-sucrose diet (Biological Example 8); type: in vivo; conditions: diet-induced obese mice; daily s.c. for 2 weeks; liraglutide 0.1 mg/kg, Compound C 5 mg/kg; FIG. 12b
Method: 2.5 Months old male C57Bl/6N mice were grouped caged (4-5 mice per cage), kept at 30° C. and fed with high-fat, high-sucrose diet (45% fat) for 5 months. The mice were divided into four groups (2-3 mice per cage) according to their fasting blood glucose levels, glucose tolerance, body weight, body fat and lean mass, and treated daily for 2 weeks, subcutaneously with either vehicle, liraglutide (0.1 mg/kg), Compound C (5 mg/kg), or a mixture of liraglutide (0.1 mg/kg) and Compound C (5 mg/kg). Food intake and body weight were measured every other day; body fat and lean mass were measured weekly.

[3] = target: T1, β2-adrenergic receptor (Rattus norvegicus, UniProt P10608); experiment: Glucose uptake in the presence of the selective β2-adrenergic receptor antagonist ICI-118551 (Biological Example 1); type: cell-based; conditions: L6-myotubes; test compound 1×10^−5 M; different concentrations of ICI-118551; FIGS. 1a-1c
T1 construct: endogenous in cells; host or cells: L6 myoblasts differentiated into myotubes
T1 sequence (P10608 whole entry): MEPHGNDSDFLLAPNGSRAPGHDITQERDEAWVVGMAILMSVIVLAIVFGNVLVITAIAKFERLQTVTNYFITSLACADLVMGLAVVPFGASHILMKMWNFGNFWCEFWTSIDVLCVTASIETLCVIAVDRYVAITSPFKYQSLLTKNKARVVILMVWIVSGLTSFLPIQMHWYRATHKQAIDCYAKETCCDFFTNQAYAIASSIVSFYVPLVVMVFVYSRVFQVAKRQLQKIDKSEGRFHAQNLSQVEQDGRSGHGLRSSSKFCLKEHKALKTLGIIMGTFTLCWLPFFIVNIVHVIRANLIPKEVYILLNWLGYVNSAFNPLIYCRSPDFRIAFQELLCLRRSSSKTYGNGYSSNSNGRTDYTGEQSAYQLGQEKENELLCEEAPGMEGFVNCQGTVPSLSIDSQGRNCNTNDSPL
Method: L6-myoblasts were grown in Dulbecco's Modified Eagle's Medium (DMEM) containing 1 g/L glucose supplemented with 10% fetal bovine serum (FBS), 2 mM L-glutamine, 50 U/mL penicillin, 50 μg/mL streptomycin and 10 mM HEPES. Cells were plated at 1×10^5 cells per mL in 24-well plates. After reaching 90% confluence the cells were grown in medium containing 2% FBS for 7 days where upon cells differentiated into myotubes. The differentiated L6-myotubes were serum-starved overnight in medium containing 0.5% fatty-acid free BSA and stimulated with the test compound at a final concentration of 1×10^−5 M in the presence of different concentrations of the selective β2-adrenergic receptor antagonist ICI-118551. After 1 h 40 min the cells were washed with warm, glucose free medium twice and another portion of agonist was added to the glucose free medium. After another 20 min of incubation the cells were exposed to 50 nM ^3H-2-deoxyglucose for 10 min before washed in ice cold glucose free medium three times and lysed in 400 μL/well 0.2 M NaOH for 1 h at 60° C. The cell lysate was mixed with 4 ml scintillation buffer (Emulsifier Safe, Perkin Elmer) and the radioactivity was detected in a β-counter (Tri-Carb 4810TR, Perkin Elmer).

[4] = system: L6-myotubes; experiment: Glucose uptake in differentiated L6-myotubes (Biological Example 2); type: cell-based; conditions: L6-myotubes; FIGS. 2a-2d
In short: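 Uptake was quantified as radioactivity in 0.2 M NaOH lysates after a 10 min pulse of 50 nM ^3H-2-deoxyglucose. The pulse followed two agonist exposures at 1×10^−5 M final (isoprenaline or test compound): 1 h 40 min, then 20 min in glucose-free medium after washing. L6 myotubes had been starved overnight in medium with 0.5% fatty-acid-free BSA.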

[5] = target: T2, β2-adrenergic receptor (Homo sapiens, UniProt P07550); experiment: β-arrestin 2 recruitment, Large BiT/Small BiT luciferase complementation in HEK293 cells (Biological Example 4); type: cell-based; conditions: luminescence after 31 min, compared with isoprenaline, FIGS. 3a-3c
T2 construct: expressed in transfected cells; host or cells: HEK293
T2 sequence (P07550 whole entry, species assumed): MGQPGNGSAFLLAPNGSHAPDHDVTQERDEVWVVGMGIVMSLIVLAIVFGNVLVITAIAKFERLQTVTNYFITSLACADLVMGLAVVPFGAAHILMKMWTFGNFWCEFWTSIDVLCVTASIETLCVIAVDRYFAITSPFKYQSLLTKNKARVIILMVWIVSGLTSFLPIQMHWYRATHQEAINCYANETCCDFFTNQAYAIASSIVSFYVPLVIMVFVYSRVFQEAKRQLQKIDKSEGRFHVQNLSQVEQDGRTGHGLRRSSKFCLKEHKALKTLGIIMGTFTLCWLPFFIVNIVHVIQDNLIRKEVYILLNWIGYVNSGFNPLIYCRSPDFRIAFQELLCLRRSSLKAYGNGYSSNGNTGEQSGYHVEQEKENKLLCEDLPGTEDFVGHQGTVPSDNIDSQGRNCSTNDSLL
Method: HEK293 cells are transfected with both the β2-adrenergic receptor attached with a Large BiT SNAP-tag protein, and with p-arrestin 2 attached to a Small BiT SNAP-tag protein. When cells are stimulated and the receptor recruits β-arrestin 2, the Small- and Large-BiT proteins merge, forming a functional luciferase enzyme, that in presence of furimazine generates light. After 31 min, the light is measured with a luminescence plate reader.

CC(C)(C)NC[C@H](O)c1ccc(F)c(N)c1F.O=C(O)/C=C\C(=O)O [Compound C, (R)-1-(3-Amino-2,4-difluorophenyl)-2-(tert-butylamino)ethan-1-ol maleate]
intracellular cAMP levels [1]: low intracellular cAMP levels
change in lean mass [2]: significantly lower as compared to administration of liraglutide alone
glucose uptake promoted by the compound in the presence of ICI-118551 [3]: inhibited in a dose-dependent manner
glucose uptake [4]: full glucose uptake response
β-arrestin 2 recruitment [5]: minimal p-arrestin 2 recruitment
